# Reference: ChEMBL document CHEMBL1201862, “PubChem BioAssay data set” (2004)
# The source made the active and inactive calls.
# How the values were obtained:
# [1] = target: T1, Heat shock factor protein 1 (Mus musculus, UniProt P38532); experiment: HSF1 potentiators in luciferase reporter cells, confirmation, cell-based, NIH3T3, luminescence, dose retest (AID 435004); type: functional;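 further: stress induced by proteasome inhibitor MG132 added 30 min after compound; luciferase reporter driven by HSF1 response element in NIH3T3 cells; actives raise luminescence as potentiators of the MG132 stress response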
# T1 sequence (P38532 whole entry): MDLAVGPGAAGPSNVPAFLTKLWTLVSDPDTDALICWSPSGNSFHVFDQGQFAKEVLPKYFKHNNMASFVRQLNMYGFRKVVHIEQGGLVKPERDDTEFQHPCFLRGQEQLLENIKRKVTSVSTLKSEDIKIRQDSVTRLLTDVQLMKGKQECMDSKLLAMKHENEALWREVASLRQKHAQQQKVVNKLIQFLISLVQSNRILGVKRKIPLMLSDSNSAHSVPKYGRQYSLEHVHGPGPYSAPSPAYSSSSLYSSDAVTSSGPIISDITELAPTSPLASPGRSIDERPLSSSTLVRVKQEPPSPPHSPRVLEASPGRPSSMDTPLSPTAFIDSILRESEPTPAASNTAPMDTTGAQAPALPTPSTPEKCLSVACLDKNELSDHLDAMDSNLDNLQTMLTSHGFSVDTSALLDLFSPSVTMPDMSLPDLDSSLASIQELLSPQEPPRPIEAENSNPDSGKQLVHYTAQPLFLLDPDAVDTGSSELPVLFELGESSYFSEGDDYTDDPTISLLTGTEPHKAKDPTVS
# [2] = cytotoxicity toward DRD oncogenic fibroblasts, dose response, cell-based, non-viral oncogenic, luminescence (AID 1934); type: functional; conditions: Homo sapiens
# BJ [3] = experiment: cytotoxicity toward BJ-TERT fibroblasts, dose response, cell-based, RAS-independent, luminescence (AID 1933); type: functional; conditions: Homo sapiens
# BJ [4] = experiment: cells; type: functional, cell-based; conditions: Homo sapiens
# BJ [5] = experiment: cytotoxicity toward BJ-TERT-LT-ST fibroblasts, dose response, cell-based, RAS-independent, luminescence (AID 1935); type: functional; conditions: Homo sapiens;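 further: BJ fibroblasts immortalized with TERT plus LT and ST oncogenes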
# [6] = target: T2, High affinity choline transporter 1 (Homo sapiens, UniProt Q9GZV3); experiment: CHT inhibitors, dose response, cell-based, 5-point CRC, membrane potential dye (AID 504840); type: functional
# T2 sequence (Q9GZV3 whole entry): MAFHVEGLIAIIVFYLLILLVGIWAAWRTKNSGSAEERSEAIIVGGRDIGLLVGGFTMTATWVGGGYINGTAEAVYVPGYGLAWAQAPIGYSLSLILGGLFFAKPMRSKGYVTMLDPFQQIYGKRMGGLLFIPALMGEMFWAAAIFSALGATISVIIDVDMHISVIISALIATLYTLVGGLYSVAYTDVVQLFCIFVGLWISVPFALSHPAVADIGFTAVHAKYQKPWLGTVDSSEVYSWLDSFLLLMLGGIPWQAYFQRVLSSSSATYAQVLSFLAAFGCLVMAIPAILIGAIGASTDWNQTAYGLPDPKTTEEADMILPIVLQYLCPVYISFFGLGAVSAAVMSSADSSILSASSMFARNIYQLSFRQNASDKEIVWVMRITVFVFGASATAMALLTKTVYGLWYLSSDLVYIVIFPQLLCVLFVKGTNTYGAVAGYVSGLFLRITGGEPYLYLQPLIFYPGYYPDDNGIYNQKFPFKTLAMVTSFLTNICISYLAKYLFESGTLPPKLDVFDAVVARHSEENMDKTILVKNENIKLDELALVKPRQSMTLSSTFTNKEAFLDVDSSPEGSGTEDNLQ
# [7] = ZM109 Env clade C HIV-1 fusion inhibitors, dose response, HeLa effector, CEM target cells, luciferase, cherry-pick (AID 652058); type: functional, cell-based
# [8] = off-target signal loss in HeLa-CEM21 co-culture – HeLa F-luc CTL cells, cherry-picked, counter-screen for HIV-1 Env fusion inhibitor project, dose response (AID 652040); type: functional, cell-based;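 further: potency for signal decrease marking cytotoxic or nonspecific inhibition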
# [9] = inhibitors of HIV Env-driven cell fusion, dose response, cherry-pick (AID 652057); type: functional, cell-based
# H9c2 = experiment: cells; type: functional, cell-based; conditions: Rattus norvegicus, H9c2, Myocardium;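 further: confirmatory concentration-response retest of ultra-high-throughput screening hits for modulation of myocardial damage; cell death induced by hydrogen peroxide oxidative stress; compound pretreatment for 60 min then peroxide exposure for 2 h; potency is for protecting the cells against peroxide damage rather than for killing them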
# [10] = P. falciparum Dd2 growth inhibitors, dose response, SYBR Green, cherry-picked samples (AID 1159567); type: functional, cell-based
# [11] = cytotoxicity in HEK-293T cells, dose response, cytotoxicity control for BCR NF-kB inhibitor project, luminescence, B-cell screen hits (AID 489021); type: functional, cell-based;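 further: HEK-293T cells carrying an NF-kB luciferase reporter; cells exposed to compound for about 14 hours before viability readout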
# SN12K1 = experiment: cells; type: functional; conditions: Homo sapiens
# P388 = experiment: cells; type: functional; conditions: Mus musculus
# P388/ADR = experiment: cells; type: functional; conditions: Mus musculus
# [12] = target: Glyceraldehyde-3-phosphate dehydrogenase (Homo sapiens, UniProt P04406)
# [13] = target: T3, Calpain-2 catalytic subunit (Sus scrofa, UniProt P43367); experiment: pig calpain II inhibitor potency, dose response, biochemical, fluorogenic peptide substrate (AID 1420); type: functional
# T3 sequence (P43367 whole entry): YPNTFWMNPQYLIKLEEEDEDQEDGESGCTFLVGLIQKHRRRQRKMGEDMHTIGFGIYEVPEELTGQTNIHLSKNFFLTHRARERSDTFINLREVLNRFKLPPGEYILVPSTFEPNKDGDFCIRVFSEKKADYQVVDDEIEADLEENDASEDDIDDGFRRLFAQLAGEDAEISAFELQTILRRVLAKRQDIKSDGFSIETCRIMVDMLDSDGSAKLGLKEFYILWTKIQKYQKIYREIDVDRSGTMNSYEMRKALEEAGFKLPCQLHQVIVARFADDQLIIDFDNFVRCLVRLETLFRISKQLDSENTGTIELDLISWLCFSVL
# [14] = inhibitors of clade B AD8 Env fusion, dose response, cell-based, cherry-pick (AID 652062); type: functional;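 further: luciferase signal from cell-cell fusion driven by HIV-1 clade B AD8 Env; potency is for inhibitors of fusion seen as a drop in luminescence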
# INS1 = experiment: beta cell apoptosis inhibitors, cytokine rescue, dose response, luminescence, retest (AID 449756); type: functional, cell-based; conditions: Rattus norvegicus;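 further: cell death triggered by IL-1 beta plus TNF-alpha plus IFN-gamma mixture; protective hits raise ATP signal compared with cytokine alone wells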
# [15] = target: T4, Corticotropin-releasing factor receptor 2/Corticotropin-releasing factor-binding protein (Homo sapiens, UniProt P24387+Q13324); experiment: activators of CRF receptor 2 with binding protein – uHTS hits, confirmation (AID 602473); type: functional; conditions: read-out: EC50_Mean
# T4 sequence (Q13324 whole entry): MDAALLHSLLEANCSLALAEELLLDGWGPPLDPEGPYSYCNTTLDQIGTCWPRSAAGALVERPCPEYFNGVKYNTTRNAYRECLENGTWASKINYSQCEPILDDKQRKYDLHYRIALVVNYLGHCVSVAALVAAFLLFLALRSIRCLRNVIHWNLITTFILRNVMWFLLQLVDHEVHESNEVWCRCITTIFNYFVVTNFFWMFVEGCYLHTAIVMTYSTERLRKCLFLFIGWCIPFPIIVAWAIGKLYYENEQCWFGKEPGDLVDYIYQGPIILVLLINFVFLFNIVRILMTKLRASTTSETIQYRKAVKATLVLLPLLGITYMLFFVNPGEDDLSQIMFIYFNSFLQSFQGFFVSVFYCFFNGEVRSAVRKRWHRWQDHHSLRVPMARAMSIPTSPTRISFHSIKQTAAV
# T4 sequence (P24387 whole entry): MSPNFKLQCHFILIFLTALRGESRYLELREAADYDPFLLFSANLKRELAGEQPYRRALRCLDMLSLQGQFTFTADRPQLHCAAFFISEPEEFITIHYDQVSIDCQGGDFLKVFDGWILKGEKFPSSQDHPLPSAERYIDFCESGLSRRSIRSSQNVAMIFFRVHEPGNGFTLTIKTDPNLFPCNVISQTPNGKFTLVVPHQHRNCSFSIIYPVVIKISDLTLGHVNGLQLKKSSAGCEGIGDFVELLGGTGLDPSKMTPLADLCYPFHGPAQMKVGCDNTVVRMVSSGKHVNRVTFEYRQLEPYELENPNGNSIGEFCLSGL
# [16] = target: T5, Ubiquitin-conjugating enzyme E2 N (Homo sapiens, UniProt P61088); type: functional;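 further: Dose-response confirmation in a TR-FRET assay detecting UBC13-driven polyubiquitin chain formation, inhibition measured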
# T5 sequence (P61088 whole entry): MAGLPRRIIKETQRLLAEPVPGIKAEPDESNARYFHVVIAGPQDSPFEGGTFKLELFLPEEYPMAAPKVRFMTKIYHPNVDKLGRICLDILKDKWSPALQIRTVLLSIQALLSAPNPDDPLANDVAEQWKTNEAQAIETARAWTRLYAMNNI
# Sequence of Glyceraldehyde-3-phosphate dehydrogenase (P04406 whole entry): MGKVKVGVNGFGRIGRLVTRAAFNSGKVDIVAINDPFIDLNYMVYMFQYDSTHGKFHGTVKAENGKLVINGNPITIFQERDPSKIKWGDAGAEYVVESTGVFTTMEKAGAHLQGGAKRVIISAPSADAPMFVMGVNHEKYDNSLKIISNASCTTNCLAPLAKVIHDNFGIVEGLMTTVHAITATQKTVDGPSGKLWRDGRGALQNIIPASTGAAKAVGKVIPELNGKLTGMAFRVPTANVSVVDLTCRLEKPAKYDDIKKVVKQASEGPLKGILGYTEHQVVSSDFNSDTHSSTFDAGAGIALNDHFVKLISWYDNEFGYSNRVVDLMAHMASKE
compound,measurement,setting,value
CC(C)Nc1nc(Cl)nc(N(C#N)CN2C(=O)c3ccccc3C2=O)n1,EC50,[1],27.9 µM (active)
same,EC50,[2],17.9 µM (active)
same,EC50,BJ [3],10.1 µM (active)
same,EC50,BJ [4],16.2 µM (active)
same,EC50,BJ [5],> 150 µM (inconclusive)
same,IC50,[6],1.58 µM (active)
C[C@@]12C(=O)N(Cc3ccc(F)cc3)CC(=O)N1[C@H]1c3cc(Cl)ccc3OC[C@@H]1[C@@H]2c1ccccc1,AC50,[7],8.91 µM (active)
same,AC50,[8],7.95 µM (active)
same,AC50,[9],5.93 µM (active)
COc1ccc(/C=N\NC(=O)c2c(C)nc3ccc(Br)cn23)cc1,IC50,H9c2,12.1 µM (active)
same,EC50,[2],2.9 µM (inconclusive)
same,EC50,BJ [3],3.13 µM (active)
same,EC50,BJ [4],2.71 µM (active)
same,EC50,BJ [5],2.67 µM (inconclusive)
CC(C)(O)C#Cc1cccc(-c2nc(C(=O)N[C@@H]3CCN(Cc4ccccc4)C3)cc3c2[C@H](CCO)N([S+]([O-])C(C)(C)C)C3)c1 (stereo partly specified),AC50,[10],5.86 µM (active)
COc1ccc(NC(=O)c2cc(-c3ccccn3)nc3ccccc23)cc1S(=O)(=O)N(C)C,IC50,[11],> 80 µM (inactive)
same,IC50,H9c2,> 79 µM (inactive)
COc1ccccc1/C=N/N1C(=O)C(CC(=O)Nc2ccc([N+](=O)[O-])cc2OC)S/C1=N\c1cccc(C)c1C (stereo unspecified),EC50,[2],4.24 µM (active)
same,EC50,BJ [3],10.6 µM (active)
same,EC50,BJ [4],22.9 µM (active)
same,EC50,BJ [5],14.9 µM (inconclusive)
CN(CO)c1nc(N(C)CO)nc(N(C)CO)n1 [TRIMELAMOL],GI50,SN12K1,4.98 µM (inactive)
same,GI50,P388,6.15 µM (inactive)
same,GI50,P388/ADR,16.3 µM (inactive)
C[C@@H]1CN(C2=C(Cl)C(=O)N(c3cccc(C(F)(F)F)c3)C2=O)CCN1,IC50,[12],> 50 µM (inconclusive)
CC[C@@]1(O)C[C@H](OC2CC(N(C)C)C(OC3CC(O)C(OC4CC(O)C(O)C(C)O4)C(C)O3)C(C)O2)c2c(cc3c(c2O)C(=O)c2c(O)ccc(O)c2C3=O)[C@H]1C(=O)OC (stereo partly specified),GI50,SN12K1,0.00695 µM (active)
same,GI50,P388,0.00693 µM (active)
same,GI50,P388/ADR,0.713 µM (active)
Cc1cccc(N2C(=O)C(Cl)=C(N3CCN(c4ncccn4)CC3)C2=O)c1,IC50,[12],> 50 µM (inconclusive)
Nc1c(Cl)cc2c(c1Oc1ccccc1)C(=O)c1ccccc1C2=O,AC50,[7],14.3 µM (active)
same,AC50,[8],11.2 µM (active)
same,AC50,[9],11.2 µM (active)
same,IC50,[13],2.46 µM (not active)
same,AC50,[14],16.4 µM (active)
CC1(C)CC2(CC(C)(C)N1O)NC(=O)OC2=O,GI50,SN12K1,> 100 µM (inactive)
same,GI50,P388,60.7 µM (inactive)
same,GI50,P388/ADR,4.47 µM (inactive)
N=c1c2c(n(Cc3ccc(Cl)cc3Cl)c3c1CCC3)CCCC2,IC50,[11],> 80 µM (inactive)
same,AC50,INS1,3.58 µM (active)
CN(C)CCNC(=O)c1cccc2nc(-c3ccccc3)oc12,GI50,SN12K1,22.8 µM (inactive)
same,GI50,P388,4.34 µM (inactive)
same,GI50,P388/ADR,8.63 µM (inactive)
COCCn1nnnc1CN(CCc1ccccc1)Cc1cc2cc(OC)ccc2nc1O,IC50,H9c2,16.1 µM (active)
same,AC50,[7],5.58 µM (active)
same,AC50,[8],26.9 µM (active)
same,AC50,[9],5.69 µM (active)
same,AC50,[14],1.48 µM (active)
CC(=O)OC1CC2(O)C(CCC3(C)C(c4ccc(=O)oc4)CCC32O)C2(C)CCC(O)C=C12 (stereo unspecified),GI50,SN12K1,0.0196 µM (active)
same,GI50,P388,4.37 µM (inactive)
same,GI50,P388/ADR,7.26 µM (inactive)
Cc1nn(C(C)(C)C)c(OC(=O)c2ccc(Br)o2)c1Sc1ccccc1,IC50,[11],> 80 µM (inactive)
CS(=O)(=O)N(Cc1ccc(Cl)cc1)c1ccc(C(=O)NCCSc2ccccn2)cc1,AC50,[7],52.2 µM (active)
same,AC50,[8],18.6 µM (active)
same,AC50,[9],5.5 µM (active)
same,AC50,[14],6.23 µM (active)
same,EC50,[15],> 53 µM (inactive)
O=C(NCC1CCN(Cc2ccc(F)cc2)CC1)C1CCCN(c2ncnc3c2nc2n3CCCCC2)C1 (stereo unspecified),IC50,[16],> 20 µM (inactive)
O=C(CCCN1C(=O)/C(=C/c2ccccc2Cl)SC1=S)NNC(=O)c1ccncc1,IC50,[11],> 80 µM (inactive)
Cc1ccc(C(=O)Nc2ncn(C3CC(O)C(CO)O3)c(=O)n2)cc1 (stereo unspecified),GI50,SN12K1,> 100 µM (inactive)
same,GI50,P388,5.26 µM (inactive)
same,GI50,P388/ADR,3.69 µM (inactive)
